Assay results from ChEMBL document CHEMBL1156319, “Synthesis, crystal and antibacterial studies of diversely functionalized tetrahydropyridin-4-ol” (2010).
In brackets after ≈: the same amount, converted by molar mass.

Columns and labels:
Format in all cases: functional
Pseudomonas aeruginosa = assay: Antibacterial activity against Pseudomonas aeruginosa LCB0013 by two fold serial dilution method
Escherichia coli [1] = assay: Antibacterial activity against Escherichia coli LCB0012 by two fold serial dilution method
Haemophilus influenzae = assay: Antibacterial activity against Haemophilus influenzae LCB0015 by two fold serial dilution method
[2] = system: Staphylococcus epidermidis; assay: Antibacterial activity against Staphylococcus epidermidis LCB0003 by two fold serial dilution method
Enterococcus faecalis = assay: Antibacterial activity against Enterococcus faecalis LCB0005 by two fold serial dilution method
Escherichia coli [3] = assay: Antibacterial activity against Escherichia coli LCB0010 by two fold serial dilution method
Staphylococcus aureus = assay: Antibacterial activity against Staphylococcus aureus LCB0001 by two fold serial dilution method
Moraxella catarrhalis = assay: Antibacterial activity against Moraxella catarrhalis LCB0016 by two fold serial dilution method
Enterococcus faecium = assay: Antibacterial activity against Enterococcus faecium LCB0009 by two fold serial dilution method
Escherichia coli [4] = assay: Antibacterial activity against Escherichia coli LCB0011 by two fold serial dilution method
Klebsiella pneumoniae = assay: Antibacterial activity against Klebsiella pneumoniae LCB0014 by two fold serial dilution method

| Compound | MIC90 (Pseudomonas aeruginosa) [mg/L] | MIC90 (Escherichia coli [1]) [mg/L] | MIC90 (Haemophilus influenzae) [mg/L] | MIC90 [2] [mg/L] | MIC90 (Enterococcus faecalis) [mg/L] | MIC90 (Escherichia coli [3]) [mg/L] | MIC90 (Staphylococcus aureus) [mg/L] | MIC90 (Moraxella catarrhalis) [mg/L] | MIC90 (Enterococcus faecium) [mg/L] | MIC90 (Escherichia coli [4]) [mg/L] | MIC90 (Klebsiella pneumoniae) [mg/L] |
| --- | --- | --- | --- | --- | --- | --- | --- | --- | --- | --- | --- |
| CCOC(=O)C1=C(O)CC(c2ccccc2)N(C(=O)CN2CCSCC2)C1c1ccccc1 (stereo not given) | > 128 | > 128 | > 128 | > 128 | > 128 | > 128 | > 128 | 64 (≈ 137 µM) | > 128 | > 128 | > 128 |
| CCOC(=O)C1=C(O)CC(c2ccccc2)N(C(=O)C(C)Sc2nc3ccccc3o2)C1c1ccccc1 (stereo not given) | > 128 | > 128 | > 128 | > 128 | > 128 | > 128 | > 128 | > 128 | > 128 | > 128 | > 128 |
| CCOC(=O)C1=C(O)CC(c2ccccc2)N(C(=O)C(C)Sc2ccc3ccccc3c2)C1c1ccccc1 (stereo not given) | > 128 | > 128 | > 128 | > 128 | > 128 | > 128 | > 128 | > 128 | > 128 | > 128 | > 128 |
| CCOC(=O)C1=C(O)CC(c2ccccc2)N(C(=O)C(C)N2CCOCC2)C1c1ccccc1 (stereo not given) | > 128 | > 128 | > 128 | > 128 | > 128 | > 128 | > 128 | > 128 | 128 (≈ 276 µM) | > 128 | > 128 |
| CCOC(=O)C1=C(O)CC(c2ccccc2)N(C(=O)C(C)n2cnc3ccccc32)C1c1ccccc1 (stereo not given) | > 128 | > 128 | > 128 | > 128 | > 128 | > 128 | – | > 128 | > 128 | > 128 | > 128 |
| CCOC(=O)C1=C(O)CC(c2ccccc2)N(C(=O)CN2CCC(=O)CC2)C1c1ccccc1 (stereo not given) | > 128 | > 128 | > 128 | > 128 | > 128 | > 128 | > 128 | 64 (≈ 138 µM) | > 128 | > 128 | > 128 |
| CCOC(=O)C1=C(O)CC(c2ccccc2)N(C(=O)C(C)Oc2ccc3ccccc3c2)C1c1ccccc1 (stereo not given) | > 128 | > 128 | > 128 | > 128 | > 128 | > 128 | > 128 | > 128 | > 128 | > 128 | > 128 |
| CCOC(=O)C1=C(O)CC(c2ccccc2)N(C(=O)C(C)N2CCN(C)CC2)C1c1ccccc1 (stereo not given) | > 128 | > 128 | > 128 | > 128 | > 128 | > 128 | > 128 | 64 (≈ 134 µM) | > 128 | > 128 | > 128 |
| CCOC(=O)C1=C(O)CC(c2ccccc2)N(C(=O)Cn2nnc3ccccc32)C1c1ccccc1 (stereo not given) | > 128 | > 128 | > 128 | > 128 | > 128 | > 128 | > 128 | > 128 | 64 (≈ 133 µM) | > 128 | > 128 |
| CCOC(=O)C1=C(O)CC(c2ccccc2)N(C(=O)Cn2nnc(-c3ccccc3)n2)C1c1ccccc1 (stereo not given) | > 128 | > 128 | > 128 | > 128 | > 128 | > 128 | > 128 | > 128 | 128 (≈ 251 µM) | > 128 | > 128 |
| CCOC(=O)C1=C(O)CC(c2ccccc2)N(C(=O)CN2CCCCC2)C1c1ccccc1 (stereo not given) | > 128 | 64 (≈ 143 µM) | > 128 | > 128 | > 128 | > 128 | > 128 | 32 (≈ 71.3 µM) | 128 (≈ 285 µM) | > 128 | > 128 |
| CCOC(=O)C1=C(O)CC(c2ccccc2)N(C(=O)Cn2ccc3ccccc32)C1c1ccccc1 (stereo not given) | > 128 | > 128 | > 128 | > 128 | > 128 | > 128 | > 128 | 32 (≈ 66.6 µM) | > 128 | > 128 | > 128 |
| CCOC(=O)C1=C(O)CC(c2ccccc2)N(C(=O)CN2CCN(C)CC2)C1c1ccccc1 (stereo not given) | > 128 | > 128 | > 128 | > 128 | > 128 | > 128 | > 128 | 32 (≈ 69 µM) | 128 (≈ 276 µM) | > 128 | > 128 |
| CCOC(=O)C1=C(O)CC(c2ccccc2)N(C(=O)CN2CCOCC2)C1c1ccccc1 (stereo not given) | > 128 | > 128 | > 128 | > 128 | > 128 | > 128 | > 128 | 64 (≈ 142 µM) | > 128 | > 128 | > 128 |
| CCOC(=O)C1=C(O)CC(c2ccccc2)N(C(=O)C(C)N2CCCCC2)C1c1ccccc1 (stereo not given) | > 128 | > 128 | > 128 | > 128 | > 128 | > 128 | > 128 | 64 (≈ 138 µM) | 128 (≈ 277 µM) | > 128 | > 128 |
| CCOC(=O)C1=C(O)CC(c2ccccc2)N(C(=O)C(C)n2nnc(-c3ccccc3)n2)C1c1ccccc1 (stereo not given) | > 128 | > 128 | > 128 | > 128 | > 128 | > 128 | > 128 | > 128 | > 128 | > 128 | > 128 |
| CCOC(=O)C1=C(O)CC(c2ccccc2)N(C(=O)Cn2ccnc2)C1c1ccccc1 (stereo not given) | > 128 | 64 (≈ 148 µM) | > 128 | > 128 | > 128 | > 128 | 128 (≈ 297 µM) | 64 (≈ 148 µM) | > 128 | > 128 | > 128 |

Further lines, results first:

| MIC90 (Pseudomonas aeruginosa) [mg/L] | MIC90 (Escherichia coli [1]) [mg/L] | MIC90 (Haemophilus influenzae) [mg/L] | MIC90 [2] [mg/L] | MIC90 (Enterococcus faecalis) [mg/L] | MIC90 (Escherichia coli [3]) [mg/L] | MIC90 (Staphylococcus aureus) [mg/L] | MIC90 (Moraxella catarrhalis) [mg/L] | MIC90 (Enterococcus faecium) [mg/L] | MIC90 (Escherichia coli [4]) [mg/L] | MIC90 (Klebsiella pneumoniae) [mg/L] | Compound |
| --- | --- | --- | --- | --- | --- | --- | --- | --- | --- | --- | --- |
| > 128 | > 128 | > 128 | > 128 | > 128 | > 128 | > 128 | > 128 | > 128 | > 128 | > 128 | CCOC(=O)C1=C(O)CC(c2ccccc2)N(C(=O)CSc2nc3ccccc3o2)C1c1ccccc1 (stereo not given) |
| > 128 | 128 (≈ 259 µM) | > 128 | > 128 | > 128 | > 128 | > 128 | > 128 | > 128 | > 128 | > 128 | CCOC(=O)C1=C(O)CC(c2ccccc2)N(C(=O)C(C)n2ccc3ccccc32)C1c1ccccc1 (stereo not given) |
| > 128 | > 128 | > 128 | > 128 | > 128 | > 128 | > 128 | > 128 | 128 (≈ 244 µM) | > 128 | > 128 | CCOC(=O)C1=C(O)CC(c2ccccc2)N(C(=O)CSc2ccc3ccccc3c2)C1c1ccccc1 (stereo not given) |
| > 128 | 128 (≈ 269 µM) | > 128 | > 128 | > 128 | > 128 | > 128 | > 128 | > 128 | > 128 | > 128 | CCOC(=O)C1=C(O)CC(c2ccccc2)N(C(=O)C(C)N2CCC(=O)CC2)C1c1ccccc1 (stereo not given) |
| > 128 | > 128 | > 128 | > 128 | > 128 | > 128 | > 128 | > 128 | > 128 | > 128 | > 128 | CCOC(=O)C1=C(O)CC(c2ccccc2)N(C(=O)C(C)n2nnc3ccccc32)C1c1ccccc1 (stereo not given) |
| > 128 | > 128 | > 128 | > 128 | > 128 | > 128 | > 128 | > 128 | 128 (≈ 252 µM) | > 128 | > 128 | CCOC(=O)C1=C(O)CC(c2ccccc2)N(C(=O)COc2ccc3ccccc3c2)C1c1ccccc1 (stereo not given) |
| > 128 | 64 (≈ 150 µM) | > 128 | > 128 | > 128 | > 128 | > 128 | > 128 | > 128 | > 128 | > 128 | CCOC(=O)C1=C(O)CC(c2ccccc2)N(C(=O)c2ccccc2)C1c1ccccc1 (stereo not given) |
| > 128 | > 128 | > 128 | > 128 | > 128 | > 128 | > 128 | > 128 | > 128 | > 128 | > 128 | CCOC(=O)C1=C(O)CC(c2ccccc2)N(C(=O)C(C)N2CCSCC2)C1c1ccccc1 (stereo not given) |
| 128 (≈ 287 µM) | 64 (≈ 144 µM) | > 128 | > 128 | > 128 | > 128 | 32 (≈ 71.8 µM) | 64 (≈ 144 µM) | > 128 | > 128 | 128 (≈ 287 µM) | CCOC(=O)C1=C(O)CC(c2ccccc2)N(C(=O)C(C)n2ccnc2)C1c1ccccc1 (stereo not given) |
